Experiments:
[1] = biological target: T1, SLC3A2 (4f2) injected alone (Homo sapiens, UniProt P08195); assay: [3H]D-serine uptake in oocytes; format: cell-based; conditions: 10 µM BPOHP
T1 construct: expressed in transfected cells; host or cells: Xenopus laevis oocytes (cRNA injection)
T1 sequence (P08195 1-529): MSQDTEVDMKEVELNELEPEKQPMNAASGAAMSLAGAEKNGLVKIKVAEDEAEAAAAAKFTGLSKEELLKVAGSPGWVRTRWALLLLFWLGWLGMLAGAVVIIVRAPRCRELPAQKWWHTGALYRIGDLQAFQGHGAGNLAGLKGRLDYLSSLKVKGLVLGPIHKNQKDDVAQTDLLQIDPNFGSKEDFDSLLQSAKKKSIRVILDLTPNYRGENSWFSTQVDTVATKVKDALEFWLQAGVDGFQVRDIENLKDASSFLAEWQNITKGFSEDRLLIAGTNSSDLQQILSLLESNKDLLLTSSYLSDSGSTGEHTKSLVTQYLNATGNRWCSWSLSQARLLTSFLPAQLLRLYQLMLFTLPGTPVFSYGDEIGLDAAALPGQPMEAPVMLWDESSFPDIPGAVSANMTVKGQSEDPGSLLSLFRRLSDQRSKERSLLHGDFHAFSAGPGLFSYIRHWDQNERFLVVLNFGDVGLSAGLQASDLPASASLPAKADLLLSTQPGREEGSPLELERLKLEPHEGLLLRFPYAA
Description: Figure SM-3A. Representative traces showing 100µM L-Ala currents and co-application of 3µM BPOHP (black bar) with no effect on SLC38A neutral amino acid transporters SLC38A1(ATA1), SLC38A2 (ATA2), and SLC38A4 (ATA3). SM-3B. [3H]D-serine uptake (100nM) in SLC1A4 is blocked by BPOHP (10µM), however, [ 3H]D-serine uptake by co -expressed SLC7A10+SLC3A2 (asc1+4F2) nor SLC3A2 (4f2) expressed (injected) alone was blocked by application of 10µM BPOHP.
Figure SM-4. Tosic acid approach to compound 12c. (i) Tosylic acid 0.1M in THF 60◦C. (ii) Phenol and NaH in DCM, 40◦C under argon balloon (iii) 10% Pd/C (10% w/eq.), H2, MeOH, H2O, […]
S.Figure 3 A. Representative traces showing 100uM L-Ala currents and co-application of 3uM BPOHP (black bar) with no effect on SLC38A neutral amino acid transporters SLC38A1(ATA1), SLC38A2 (ATA2), and SLC38A4 (ATA3). B. [3H]D-serine uptake (100nM) in SLC1A4 is blocked by BPOHP (10uM), but not the H3D-serine uptake by […]

SLC1A4 = biological target: T2, SLC1A4 (Homo sapiens, UniProt P43007); assay: Schild analysis of L-alanine dose responses; format: cell-based
T2 construct: expressed in transfected cells; host or cells: Xenopus laevis oocytes (cRNA injection)
T2 sequence (P43007 1-532): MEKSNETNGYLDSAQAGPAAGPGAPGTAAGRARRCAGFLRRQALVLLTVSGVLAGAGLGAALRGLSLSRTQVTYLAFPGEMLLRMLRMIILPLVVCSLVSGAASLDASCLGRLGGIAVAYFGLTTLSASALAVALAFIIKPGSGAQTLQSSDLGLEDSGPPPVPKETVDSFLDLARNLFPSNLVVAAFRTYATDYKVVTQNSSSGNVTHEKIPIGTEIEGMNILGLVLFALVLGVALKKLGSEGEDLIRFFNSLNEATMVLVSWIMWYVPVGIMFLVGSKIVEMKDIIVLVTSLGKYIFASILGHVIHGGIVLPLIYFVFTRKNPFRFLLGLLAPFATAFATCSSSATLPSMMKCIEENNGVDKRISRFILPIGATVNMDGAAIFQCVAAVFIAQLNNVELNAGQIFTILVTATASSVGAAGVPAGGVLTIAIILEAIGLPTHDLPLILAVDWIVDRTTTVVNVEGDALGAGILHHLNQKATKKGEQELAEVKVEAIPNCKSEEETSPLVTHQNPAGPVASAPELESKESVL
Description: We further characterized the highest affinity blocker discovered from our AHPC series, biphenyl-O-hydroxy-proline (BPOHP, 14e). […] A respective right shift in the substrate dose response was apparent with increasing concentrations of BPOHP (Figure 4C).
Two-electrode voltage clamp (TEVC) transporter currents were recorded with a GeneClamp 500 amplifier and Digidata 1320A analog–digital interface (Molecular Devices, San Jose, CA, USA). Electrodes (0.2–1.0 MΩ) were filled with 3M KCl and the recording chamber was grounded with an agar bridge. Data were acquired with Axograph (v1.7.6) and LabChart (v7) and analyzed with Kaleidagraph software (v4.1) (Synergy, Reading, PA, USA). Uncoupled anion currents associated with the transport of substrate and block of SLC1A4 or SLC1A5 mediated leak conductance were recorded in the presence of Ringer with 50% substitution of NaCl by NaSCN to amplify the non-transported anion conductance.
Figure 4 BPOHP 14e characterization as a competitive, non-transportable inhibitor. […] (D) A Schild plot showing a linear relationship between [L-ala] dose ratio and four different concentrations of BPOHP, consistent with competitive inhibition.

[2] = tested on: glutamate transporters (SLC1A 1–3); assay: Inhibition of the glutamate transporters, general statement; format: cell-based, human
Description: BPOHP activity was evaluated against the glutamate transporters paralogs within the SLC1A gene family (SLC1A 1–3) as well as at neutral amino acid transporters that share common ligand substrates with the SLC1 family including SLC38A1,2, and 4 (ATA1, ATA2, ATA3) and heteromeric transporters SLC7A10+SLC3A2 (asc-1/4f2). […] Finally, radiolabeled [^3H]D-serine uptake was used to assess the electroneutral SLC7A10+SLC3A2 transporter, in which 10 µM BPOHP had no effect (Figure S3).
High resolution structural models for SLC1A4 and SLC1A5 have been developed. These models reinforce our SLC1A5 homology model derived from the archaeal glutamate transporter. […] While preparing this manuscript, inhibitors of SLC1A5 of a similar design to our alkoxy-hydroxyprolines were reported with ligand-bound high-resolution EM models. These reported EM models help validate our docking solutions with respect to mode of binding within our homology model. We emphasize that our discoveries and modeling of these hydroxyproline/AHPC inhibitors targeting SLC1A4 and SLC1A5, as documented in the public domain [66, 67], predates these reports and is yet to be properly referenced/cited. […] This nonselective SLC1 inhibition, observed with BPOHP, may be attributed to entropic contributions resulting from the biphenyl moiety occupying an adjacent hydrophobic pocket.

Structure (SMILES): O=C(O)[C@H]1NC[C@@H](OCc2ccc(-c3ccccc3)cc2)[C@@H]1O [14e]
- effect on [3H]D-serine uptake [1]: no effect
- Kb (SLC1A4): 120 nM
- inhibition of the glutamate transporters [2]: low micromolar range
